# Source: US20060105008A1, “Compositions and methods for reducing vaginal pH” (priority 2002, published 2006)
# Like-named read-outs stand apart in the source and are kept apart here.
# What was measured:
# Experiment in all cases: In vitro evaluation of azole compounds, MIC
# Format in all cases: cell-based
# [1] = tested on: Prevotella bivia; settings: one table line per isolate; for MIC: read-out: MIC's of drug needed to inhibit the growth of organism
# [2] = tested on: Lactobacillus acidophilus; settings: one table line per isolate; for MIC: read-out: MIC's of drug needed to inhibit the growth of organism
# [3] = tested on: Lactobacillus plantarum; settings: Lactiplantibacillus plantarum, read-out: MIC's of drug needed to inhibit the growth of organism
# [4] = tested on: Mobiluncus mulieris; settings: read-out: MIC's of drug needed to inhibit the growth of organism
# [5] = tested on: Bacillus fragilis; settings: read-out: MIC's of drug needed to inhibit the growth of organism
# [6] = tested on: Prevotella intermedia; settings: one table line per isolate; for MIC: read-out: MIC's of drug needed to inhibit the growth of organism
# [7] = tested on: Peptostreptococcus tetradius; settings: for MIC: Anaerococcus tetradius, read-out: MIC's of drug needed to inhibit the growth of organism
# [8] = tested on: Gardnerella vaginalis; settings: one table line per isolate, read-out: MIC's of drug needed to inhibit the growth of organism
# [9] = tested on: Prevotella disiens; settings: one table line per isolate; for MIC: read-out: MIC's of drug needed to inhibit the growth of organism
# [10] = tested on: Peptostreptococcus magnus; settings: Finegoldia magna, one table line per isolate, read-out: MIC's of drug needed to inhibit the growth of organism
# [11] = tested on: Peptostreptococcus asaccharolyticus; settings: Peptoniphilus asaccharolyticus, one table line per isolate, read-out: MIC's of drug needed to inhibit the growth of organism
# [12] = tested on: Lactobacillus species; settings: read-out: MIC's of drug needed to inhibit the growth of organism
# [13] = tested on: Bacillus theta; settings: read-out: MIC's of drug needed to inhibit the growth of organism
# [14] = tested on: Prevotella melaninogenica; settings: one table line per isolate; for MIC: read-out: MIC's of drug needed to inhibit the growth of organism
# [15] = Peptostreptococcus tetradius, one table line per isolate
MIC [1],MIC [2],MIC [4],MIC [5],MIC [6],MIC [11],MIC [12],MIC [13],"MIC [7, 15]","MIC's of drug needed to inhibit the growth of organism [7, 15]",MIC's of drug needed to inhibit the growth of organism [6],SMILES,MIC [3],MIC [9],MIC [10],MIC [14],also measured
1 mg/L,> 32 mg/L,4 mg/L,0.5 mg/L,1 mg/L,–,> 32 mg/L,2 mg/L,1 mg/L,0.5 mg/L,–,Cc1ncc([N+](=O)[O-])n1CCO [Metronidazole],1 mg/L,0.5 mg/L,–,–,MIC's of drug needed to inhibit the growth of organism [9]: 1 mg/L
256 mg/L,512 mg/L,256 mg/L,256 mg/L,128 mg/L,256 mg/L,512 mg/L,256 mg/L,256 mg/L,–,256 mg/L,CC(C)N1CCN(c2ccc(OCC3COC(Cn4cncn4)(c4ccc(Cl)cc4Cl)O3)cc2)CC1 (stereo not shown) [Terconazole],256 mg/L,128 mg/L,256 mg/L,64 mg/L,–

# Further lines, the compound ahead of its results:
SMILES,MIC [1],MIC [2],MIC [4],MIC [5],MIC [6],MIC [11],MIC [12],MIC [13],"MIC [7, 15]","MIC's of drug needed to inhibit the growth of organism [7, 15]",MIC's of drug needed to inhibit the growth of organism [6],MIC [3],MIC [9],MIC [10],MIC [14],also measured
OC(Cn1cncn1)(Cn1cncn1)c1ccc(F)cc1F [Fluconazole],> 2050 mg/L,> 2050 mg/L,> 2050 mg/L,> 2050 mg/L,> 2050 mg/L,> 2050 mg/L,> 2050 mg/L,> 2050 mg/L,–,–,–,> 2050 mg/L,> 2050 mg/L,> 2050 mg/L,> 2050 mg/L,MIC's of drug needed to inhibit the growth of organism [7]: 2048 mg/L; MIC [7]: > 2050 mg/L; MIC [8]: > 2050 mg/L
Clc1ccc(COC(Cn2ccnc2)c2ccc(Cl)cc2Cl)c(Cl)c1 (stereo not shown) [Miconazole],128 mg/L,> 128 mg/L,8 mg/L,> 128 mg/L,64 mg/L,–,> 128 mg/L,128 mg/L,–,–,–,32 mg/L,64 mg/L,–,64 mg/L,MIC's of drug needed to inhibit the growth of organism [1]: 64 mg/L
CCS(=O)(=O)CCn1c([N+](=O)[O-])cnc1C [Tinidazole],1 mg/L,> 128 mg/L,1 mg/L,0.5 mg/L,0.5 mg/L,1 mg/L,> 128 mg/L,1 mg/L,0.5 mg/L,0.25 mg/L,1 mg/L,0.65 mg/L,–,–,2 mg/L,MIC's of drug needed to inhibit the growth of organism [2]: <128 mg/L; MIC's of drug needed to inhibit the growth of organism [14]: 1 mg/L
